Here are results for 1 molecule from patent US5882881A, “Inhibition of cyst formation by cytoskeletal specific drugs” (priority 1998, dated 1999).

SMILES strings stand for the structures.

Test [1] has as its system Murine CPK Cells. In words: 3H-thymidine incorporation (DNA synthesis) in CPK cell suspension culture. The class given is cell-based, mouse. The following applies: ± SD, three wells; concentrations as in Table II; control 100 ± 11; 1440 min. Here is the method: Growth studies were performed on kidney cells derived from day 10, 21 and 28 postnatal CPK mice and their normal littermates. Immediately after cells were placed in suspension or monolayer culture, 3 μCi of ^3 H-thymidine (^3 H-dThd, specific activity 45 Ci/mmol, Amersham, Ill.) was placed in each well of the culture plate. DNA synthesis was assessed by incorporation of ^3 H-dThd over the 24 hours of culture, and trichloroacetic acid-insoluble. radioactivity was expressed as cpm/μg protein. Protein was assayed with the BCA reagent as described by the manufacturer (Pierce, Rockford, Ill.). At 24 hours of culture, an aliquot (0.2 ml) of the suspension was removed and the number of cysts counted using an inverted microscope. The number of cysts was expressed as a ratio factored for the total number of cells in the suspension at 24 hours of culture. Cyst diameter was measured at 100× using an eyepiece micrometer.
The effects of various metabolic inhibitors on cyst formation were studied in cultures derived from day 21 postnatal CPK mice. […] Taxol (25 μM), a microtubule specific inhibitor, was from Calbiochem (La Jolla, Calif.). All other chemicals were obtained from Sigma Chemical Co. Cytosine arabinoside was added at the final concentration of 20 μg/ml to inhibit DNA synthesis; α-amanitin at 100 ng/ml to inhibit RNA synthesis; cycloheximide at 40 μg/ml to inhibit protein synthesis; amiloride at 1 mM to inhibit the renal epithelial Na^+ -H^+ exchange; ouabain at 0.5 mM to inhibit Na^+ -K^+ -ATPase; brefeldin-A at 10 μg/ml to inhibit transport of surface proteins; griseofulvin at 350 μM to inhibit microtubule function; colchicine at 10 μM to inhibit microtubule polymerization; and cytochalasin-B and cytochalasin-D at 10 μM to depolymerize actin filaments.
In the presence of these metabolic inhibitors in vitro, cyst formation was noted to be either present or absent; if present, the diameters of 20 cysts from a 0.2 ml aliquot were measured. In the same samples, ^3 H-dThd incorporation was also measured as described above. […] After each wash, cell clusters were collected by centrifuging at 200×g for 1 minute and the supernatant discarded. Washed cell clusters were resuspended in the original volume of growth medium without inhibitors, placed in agarose coated wells and incubated at 37° C. in a moisture saturated incubator in 5% CO2 and air.
In this table, the mean cyst size is reported as ±SD with a measurement of twenty cysts. The ^3 H-dThd incorporation is reported as ±SD using measurements of three wells. The * indicates […] versus control. […] The entries listed as "NA" in the table indicate data that is not available.

The test system of test [2] is human ADPKD cells. Kind of test: In vitro cyst formation in human ADPKD cells. As to conditions: human ADPKD cells; cytosine arabinoside 20 μg/ml, α-amanitin 100 ng/ml, cycloheximide 40 μg/ml, amiloride 1 mM, ouabain 0.5 mM, taxol 25 μM, colchicine 10 μM, vinblastine 1 μM, cytochalasins 10 μM. The class given is cell-based. The text has this:
I have substituted human ADPKD cells for the murine CPK cells of Example 1 and produced similar results. Other cyst-forming cells are believed to also form suitable results with only minor deviations from the conditions set forth in Example 1.
Cell suspensions were separated from debris by sedimentation at unit gravity and decantation. After washing once with DMEM/F12 medium, cells were suspended in DMEM/F12 supplemented with 1.2 gm/l sodium bicarbonate, 1× insulin, transferrin and selenium (Sigma # 11184), 1% lipids supplement (Sigma # L4646) and 1× antibiotic/antimycotic (Sigma # A7292) at a density of 5×10^4 cells per ml. Two mls of the cell suspension were aliquoted into each well of a six-well plastic cell culture plates that had been precoated with 2 mls of 1% low melting point agarose in DMEM/F12 and incubated at 37° C. in a humidified atmosphere of 5% CO2 in air.
I used the in vitro cyst formation system of the present invention to analyze compounds that affect the process of cyst formation. To determine the therapeutic effectiveness of an agent, cyst-forming cells are suspended in a medium to which the agent has been added. These cells are then cultured on a solid phase without formation of a layer of cells on the surface, such as in the assay system described in Example 1. The extent to which the cells actually form cysts can be detected and compared to the extent of cyst formation expected if no agent were added. If the amount of cyst formation is lower than expected, then the agent is a good candidate for therapeutic intervention of cystic diseases.

For `CC(=O)O[C@H]1C(=O)[C@@]2(C)[C@H]([C@H](OC(=O)c3ccccc3)[C@]3(O)C[C@H](OC(=O)[C@H](O)[C@@H](NC(=O)c4ccccc4)c4ccccc4)C(C)=C1C3(C)C)[C@]1(OC(C)=O)CO[C@@H]1C[C@@H]2O` [Taxol], the “^3 H-dThd Incorporation” value in test [1] came to 90 ± 11 % control. In addition, the “cyst formation (in words)” value in test [2] is “reversibly inhibited in vitro cyst formation in both models”.
